Data: patent publication US9926340B2, “NAD analogs and methods of using said NAD analogs in determining ribosylation of proteins with PARP mutants” (The Board of Regents of the University of Texas System, priority 2015, dated 2018)
“Also recorded” adds a separate entry of the source.

Key:
[1] = molecular target: T1, PARP-1 (L877A) (Homo sapiens, UniProt P09874, L877A); assay: PARP-1 enzyme kinetics assay (LC-HPLC of nicotinamide formation); assay type: biochemical; conditions: 250 nM PARP-1(L877A), 10-500 μM analog, 25° C., 5 minutes
T1 construct: His10; made in house; host or cells: E. coli BL21(DE3) (inferred)
T1 sequence (P09874 whole entry L877A): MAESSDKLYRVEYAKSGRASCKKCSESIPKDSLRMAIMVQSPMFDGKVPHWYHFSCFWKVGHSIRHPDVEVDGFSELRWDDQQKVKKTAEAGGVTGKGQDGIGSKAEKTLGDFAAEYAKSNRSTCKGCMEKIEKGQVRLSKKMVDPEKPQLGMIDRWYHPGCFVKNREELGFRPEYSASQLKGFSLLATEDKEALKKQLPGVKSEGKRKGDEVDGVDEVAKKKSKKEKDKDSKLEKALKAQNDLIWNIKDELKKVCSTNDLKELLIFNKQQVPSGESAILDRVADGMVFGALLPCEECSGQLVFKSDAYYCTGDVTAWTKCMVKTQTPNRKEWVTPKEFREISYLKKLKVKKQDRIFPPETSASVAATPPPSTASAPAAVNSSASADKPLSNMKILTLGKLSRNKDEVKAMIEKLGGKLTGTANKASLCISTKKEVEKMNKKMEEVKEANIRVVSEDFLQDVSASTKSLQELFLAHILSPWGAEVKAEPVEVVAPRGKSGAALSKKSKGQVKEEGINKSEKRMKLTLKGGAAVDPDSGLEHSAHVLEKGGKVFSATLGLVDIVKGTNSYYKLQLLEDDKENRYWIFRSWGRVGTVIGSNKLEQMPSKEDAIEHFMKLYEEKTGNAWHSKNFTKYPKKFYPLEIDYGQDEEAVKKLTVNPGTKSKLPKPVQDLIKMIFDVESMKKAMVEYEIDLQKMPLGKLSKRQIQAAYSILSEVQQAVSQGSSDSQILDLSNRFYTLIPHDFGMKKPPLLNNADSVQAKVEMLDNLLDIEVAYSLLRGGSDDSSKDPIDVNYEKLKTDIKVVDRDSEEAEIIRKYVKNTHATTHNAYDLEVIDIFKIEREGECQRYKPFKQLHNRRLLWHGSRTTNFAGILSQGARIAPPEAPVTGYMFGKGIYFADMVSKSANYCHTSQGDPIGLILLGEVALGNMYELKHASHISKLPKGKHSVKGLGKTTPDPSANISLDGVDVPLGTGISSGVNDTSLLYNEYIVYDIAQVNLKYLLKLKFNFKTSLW
Experimental: The enzyme kinetics of wild-type and analog-sensitive mutants of human PARP-1 were determined essentially as previously described (Jiang et al., 2010). Purified PARP-1 proteins were incubated for 5 minutes in PARP Enzyme Kinetics Buffer (50 mM Tris.HCl, pH 7.9, 4 mM MgCl2) containing 0.5 mg/mL sonicated salmon sperm DNA (Stratagene) at 25° C. with 10, 20, 30, 50, 100, 250, and 500 μM NAD^+ or 8-Bu(3-yne)T-NAD^+. The concentrations of the purified PARP-1 proteins were (1) 25 nM for PARP-1 with NAD^+, (2) 50 nM for PARP-1(L877A) with NAD^+, and […] 250 nM for PARP-1 and PARP-1(L877A) with 8-bu(3-yne)T-NAD^+. The reactions were brought to 450 mM perchloric acid (HClO4) to stop them, incubated for 5 minutes on ice, and then brought to […] potassium carbonate (K2CO3) to quench them. The quenched reactions were centrifuged at maximum speed in a microcentrifuge at 4° C., and the supernatant containing small molecules from the automodification reaction was collected.
The supernatants from the extracted ADP-ribosylation reactions were analyzed using a Shimadzu LCMS-QP8000α with a Phenomenex Kinetex C18 column (150×4.6 mm, 5 μm XB-C18 100A) monitored at 260 nm. […] Quantitative values for the small molecules and metabolites were obtained by comparison to a standard curve. […]

[2] = molecular target: T2, asPARP-1 in nuclei from Parp1−/− MEFs (Mus musculus, UniProt P11103, L876A); assay: 8-Bu(3-yne)T-ADP-ribosylation reactions in intact nuclei; assay type: cell-based; conditions: Parp1−/− MEF nuclei, 250 μM analog, 30 minutes at 25° C.
T2 construct: expressed in transfected cells; host or cells: Parp1-/- mouse embryonic fibroblasts, lentiviral transduction, isolated nuclei
T2 sequence (P11103 whole entry L876A): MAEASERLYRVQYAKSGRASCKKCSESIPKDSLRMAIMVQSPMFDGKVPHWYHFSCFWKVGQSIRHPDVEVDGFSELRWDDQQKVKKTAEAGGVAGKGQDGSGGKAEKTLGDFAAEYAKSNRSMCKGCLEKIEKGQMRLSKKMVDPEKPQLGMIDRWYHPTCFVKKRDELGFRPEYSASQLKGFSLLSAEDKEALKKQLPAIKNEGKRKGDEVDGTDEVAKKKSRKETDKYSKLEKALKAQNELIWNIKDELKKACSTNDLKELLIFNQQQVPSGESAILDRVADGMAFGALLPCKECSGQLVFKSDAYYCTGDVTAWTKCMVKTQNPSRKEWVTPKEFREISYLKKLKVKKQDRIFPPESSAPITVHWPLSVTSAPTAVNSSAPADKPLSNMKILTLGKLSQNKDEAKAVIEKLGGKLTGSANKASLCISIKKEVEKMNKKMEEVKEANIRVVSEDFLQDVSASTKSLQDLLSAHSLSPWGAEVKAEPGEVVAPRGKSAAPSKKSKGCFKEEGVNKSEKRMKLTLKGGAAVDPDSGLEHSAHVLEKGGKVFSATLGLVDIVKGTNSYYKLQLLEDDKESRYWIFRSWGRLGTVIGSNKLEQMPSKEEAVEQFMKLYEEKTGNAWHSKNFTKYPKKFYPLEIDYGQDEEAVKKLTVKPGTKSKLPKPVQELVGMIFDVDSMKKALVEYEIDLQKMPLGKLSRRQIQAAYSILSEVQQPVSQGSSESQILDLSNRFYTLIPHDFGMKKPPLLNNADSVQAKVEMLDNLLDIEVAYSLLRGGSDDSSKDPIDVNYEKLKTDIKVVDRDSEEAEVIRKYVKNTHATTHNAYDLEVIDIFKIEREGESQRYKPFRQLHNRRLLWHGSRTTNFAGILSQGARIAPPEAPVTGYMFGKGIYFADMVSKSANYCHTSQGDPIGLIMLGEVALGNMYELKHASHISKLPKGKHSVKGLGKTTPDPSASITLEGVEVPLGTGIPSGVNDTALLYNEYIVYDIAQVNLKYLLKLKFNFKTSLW
Experimental: 50% confluent MEF cells expressing asPARP-1 were harvested with cold PBS using a rubber policeman and collected by centrifugation for 5 minutes at 800 RCF at 4° C. Cells were resuspended for 10 minutes to facilitate cell swelling in Nuclear Isolation Buffer (10 mM HEPES, pH 8.0, 2 mM MgCl2, 3 mM CaCl2, 300 mM Sucrose, 1 mM DTT, 1 mM PMSF, 4 mM Benzamidine, 1 μM Aprotinin, 100 μM Leupeptin, 1 μM Pepstatin A, and 1 in 250 parts SIGMA Phosphatase Inhibitor Cocktails 2 and 3). Nuclei were released from cells by addition of NP-40 to 0.65% under medium vortex and immediately collected by centrifugation at 10,000 RCF for 1 minute at 4° C. […]
Following 8-Bu(3-yne)T-ADP-ribosylation in intact nuclei from MEFs as described above, the nuclei were washed once with Nuclei Click Reaction Buffer (10 mM HEPES, pH 8.0, 10 mM NaCl, 10 mM spermidine, 0.1% NP-40, with freshly added protease inhibitors) and then clicked twice to Alexa Fluor 488 by the sequential addition of 100 μM azido-Alexa Fluor 488 (Life Technologies), a pre-formed complex of CuSO4:THPTA (1.0 mM:5.0 mM), and 5 mM sodium ascorbate. […] Fluorescence was visualized via confocal microscopy using a Leica TCS SP2 Confocal Microscope.

In the case of C#CCCSc1nc2c(N)ncnc2n1[C@@H]1O[C@H](COP(=O)(O)OP(=O)(O)OC[C@H]2O[C@@H]([n+]3cccc(C(N)=O)c3)C(O)C2O)[C@H](O)C1O (some centres unmarked) [8-Bu(3-yne)T-NAD^+], the “enzyme kinetics compared to PARP-1 and NAD+” value [1] is reported as “nearing wild-type enzyme kinetics” and the “ADP-ribosylation in intact nuclei expressing asPARP-1” value [2] is reported as “catalytically active; also recorded: clearly evident”.
